In brackets after ≈: the same amount, converted by molar mass. Activity calls are given as the source filed them. The rule behind the calls is not given here.
What was measured:
Escherichia coli [1] = assay: Antimicrobial activity against Escherichia coli BL21 assessed as growth inhibition at 200 uM after 24 hrs; format: functional; details: for inhibition at 200 µM: BL21, BL21, 24 h
[2] = Inhibition of Escherichia coli MurA at 25 uM; parameters: species or system Escherichia coli BL21
Escherichia coli BL21 = assay: Inhibition of Escherichia coli MurA; parameters: concentration or dose not given beside the values
[3] = tested on: Escherichia coli BL21 [C115D]; assay: Inhibition of Escherichia coli MurA C115D mutant at 25 uM
Escherichia coli [4] = assay: Antimicrobial activity against Escherichia coli BL21 assessed as growth inhibition at 200 uM in presence of minimum medium; format: functional
Escherichia coli [5] = assay: Antimicrobial activity against Escherichia coli BL21 expressing MurA C115D mutant assessed as growth inhibition at 200 uM after 20 hrs in presence of kanamycin and 1 mM IPTG; format: functional
Escherichia coli [6] = assay: Antimicrobial activity against Escherichia coli BL21 expressing MurA C115D mutant assessed as growth inhibition at 200 uM after 20 hrs in presence of kanamycin and 0.5 mM IPTG; format: functional
Escherichia coli [7] = assay: Antimicrobial activity against Escherichia coli BL21 after 24 hrs; format: functional; details: BL21, 24 h
Escherichia coli [8] = assay: Antimicrobial activity against Escherichia coli BL21 assessed as growth inhibition at 200 uM in presence of IPTG; format: functional
Escherichia coli [9] = assay: Antimicrobial activity against Escherichia coli BL21 expressing MurA C115D mutant assessed as growth inhibition at 200 uM in presence of kanamycin; format: functional
[10] = Electrophilicity, glutathione reactivity of the compound assessed as half life; format: physicochemical; details: glutathione (reaction with glutathione)

IC50 [2] | inhibition (Escherichia coli BL21; concentration not given here) | inhibition [3] | inhibition (Escherichia coli BL21) | SMILES | inhibition at 200 µM (Escherichia coli [1]) | inhibition at 200 µM (Escherichia coli [4]) | inhibition (Escherichia coli [1]) | inhibition (Escherichia coli [4]) | Activity (Escherichia coli [5]) | Activity (Escherichia coli [6]) | MBC (Escherichia coli [7]) | MIC (Escherichia coli [7]) | Activity (Escherichia coli [8]) | Activity (Escherichia coli [9]) | half-life [10]
6.6 µM | 74% | inactive | – | C=C1C(=O)OC(CO)C1O (centres undefined) | 26% | 102% | – | – | – | – | – | – | – | – | –
4.5 µM | 79% | 10% | – | C=C(C(=O)OC)C(OC(C)=O)C(O)CO (centres undefined) | 30% | 98% | – | – | – | – | – | – | – | – | –
10.4 µM | 85% | 18% | – | C=C1C(=O)OC(CBr)C1O (centres undefined) | 84% | 103% | – | – | – | – | – | – | – | – | –
– | 17% | inactive | – | C=C1CC(CO)OC1=O (centres undefined) | – | 47% | inactive | – | – | – | – | – | – | – | –
– | – | inactive | inactive | C=C(CO)C(=O)O | – | – | inactive | inactive | – | – | – | – | – | – | > 2.5 days
6.3 µM | 77% | 10% | – | C=C(C(=O)OC)C(O)C(O)CO (centres undefined) | 17% | – | – | – | – | – | – | – | – | – | –
– | – | inactive | inactive | C=C1CCOC1=O [TULIPALINE A] | 5% | – | – | inactive | – | – | – | – | – | – | –
5 µM | 84% | inactive | – | C=C(C(=O)O[C@@H]1O[C@H](CO)[C@@H](O)[C@H](O)[C@H]1O)[C@@H](O)CO [1-TULIPOSIDE B] | 64% | 97% | – | – | – | – | 50 µM (≈ 14.7 µg/mL) | 6.25 µM (≈ 1.84 µg/mL) | – | – | –
– | – | inactive | inactive | C=C(CO)C(=O)OC | – | – | inactive | inactive | – | – | – | – | – | – | –
– | 55% | inactive | – | C=C(CBr)C(=O)OC [METHYL BROMOMETHYL ACRYLATE] | 20% | 101% | – | – | – | – | – | – | – | – | –
– | – | inactive | inactive | C=C(C(=O)OC)C(O)C1COC(C)(C)O1 (centres undefined) | – | – | inactive | inactive | – | – | – | – | – | – | –
– | – | inactive | inactive | C=C1CC(COC(C)=O)OC1=O (centres undefined) | – | 74% | inactive | – | – | – | – | – | – | – | –
– | 11% | inactive | – | C=C(CCO)C(=O)O[C@@H]1O[C@H](CO)[C@@H](O)[C@H](O)[C@H]1O | – | – | inactive | inactive | – | – | – | – | – | – | –
– | – | inactive | inactive | C=C(C(=O)O)C(O)C(O)CO (centres undefined) | – | – | inactive | inactive | – | – | – | – | – | – | –
– | – | inactive | inactive | C=C(CCO)C(=O)O | – | – | – | inactive | – | – | – | – | – | – | –

SMILES | IC50 [2] | inhibition (Escherichia coli BL21; concentration not given here) | inhibition [3] | inhibition (Escherichia coli BL21) | inhibition at 200 µM (Escherichia coli [1]) | inhibition at 200 µM (Escherichia coli [4]) | inhibition (Escherichia coli [1]) | inhibition (Escherichia coli [4]) | Activity (Escherichia coli [5]) | Activity (Escherichia coli [6]) | MBC (Escherichia coli [7]) | MIC (Escherichia coli [7]) | Activity (Escherichia coli [8]) | Activity (Escherichia coli [9]) | half-life [10]
C=C(CP(=O)(O)O)C(=O)OC | – | – | inactive | inactive | – | – | inactive | inactive | – | – | – | – | – | – | –
C=C1C(=O)OCC1O (racemic) [(+/-)-TULIPALINE B] | 2 µM | 97% | inactive | – | 62% | 93% | – | – | inactive | inactive | 200 µM (≈ 22.8 µg/mL) | 12.5 µM (≈ 1.43 µg/mL) | inactive | inactive | –
C=C(CP(=O)(OCC)OCC)C(=O)OC | – | 20% | inactive | – | – | – | inactive | inactive | – | – | – | – | – | – | –
C=C1C(=O)O[C@@H]2/C=C(\CO)CC/C=C(\C)C[C@H](OC(=O)C(=C)[C@H](O)CO)[C@@H]12 [CNICIN] | 16.7 µM | 97% | inactive | – | 19% | 92% | – | – | inactive | inactive | 200 µM (≈ 75.7 µg/mL) | 25 µM (≈ 9.46 µg/mL) | inactive | inactive | –
C[C@@H]1O[C@@H]1P(=O)(O)O [FOSFOMYCIN] | 0.1 µM | 99% | inactive | – | 100% | 96% | – | – | Active | Active | 200 µM (≈ 27.6 µg/mL) | 50 µM (≈ 6.9 µg/mL) | inactive | inactive | > 2.5 days
C=C(CP(=O)(O)O)C(=O)O | – | 13% | inactive | – | – | – | inactive | inactive | – | – | – | – | – | – | –
C=C(C(=O)O)C(O)CO (centres undefined) | 8.6 µM | 87% | inactive | – | 18% | 100% | – | – | inactive | inactive | 25 µM (≈ 3.3 µg/mL) | 1.56 µM (≈ 0.206 µg/mL) | inactive | inactive | < 0.292 days
